Results reported in the NIST ThermoML archive (doi:10.1016/j.tca.2008.02.008).

Columns and labels:
[1] = 298.15 K; 101.33 kPa; Liquid; Vibrating tube method
[2] = refractive index (Na D-line) (dimensionless); details: 298.15 K; 101.33 kPa; Liquid; refractometer
[3] = excess molar enthalpy (molar enthalpy of mixing); xn = mol fraction of the nth substance listed; details: 298.15 K, 101 kPa, Liquid, Flow calorimetry

COCCOC(C)=O [2-methoxyethyl ethanoate]
Details	mass density [kg/m3]	refractive index
[1]	999.76	–
[2]	–	1.39988

CCOCCOC(C)=O [2-ethoxyethyl ethanoate] + CC(Cl)CCl
[3]
Details	excess molar enthalpy [kcal/mol]
x2 = 0.0532	-0.0175
x2 = 0.1067	-0.0303
x2 = 0.1585	-0.0476
x2 = 0.2088	-0.0594
x2 = 0.2575	-0.0693
x2 = 0.3049	-0.0772
x2 = 0.351	-0.08413
x2 = 0.3957	-0.08934
x2 = 0.4605	-0.09474
x2 = 0.5022	-0.09634
x2 = 0.5428	-0.09677
x2 = 0.6017	-0.09524
x2 = 0.6583	-0.09261
x2 = 0.6949	-0.08788
x2 = 0.748	-0.0794
x2 = 0.7991	-0.0688
x2 = 0.8485	-0.0565
x2 = 0.896	-0.0419
x2 = 0.9569	-0.0198

CCOCCOC(C)=O [2-ethoxyethyl ethanoate]
Details	mass density [kg/m3]	refractive index
[1]	967.36	–
[2]	–	1.40311

CCCCOCCOC(C)=O [2-butoxyethyl acetate] + CC(Cl)CCl
[3]
Details	excess molar enthalpy [kcal/mol]
x2 = 0.0659	-0.0225
x2 = 0.0985	-0.0299
x2 = 0.1611	-0.0499
x2 = 0.1911	-0.0545
x2 = 0.2486	-0.0684
x2 = 0.3032	-0.079
x2 = 0.3549	-0.08791
x2 = 0.4041	-0.09455
x2 = 0.4509	-0.09775
x2 = 0.4955	-0.1004
x2 = 0.5585	-0.1023
x2 = 0.5982	-0.1015
x2 = 0.6545	-0.09778
x2 = 0.7073	-0.0914
x2 = 0.7568	-0.0831
x2 = 0.8035	-0.0727
x2 = 0.8615	-0.0569
x2 = 0.9022	-0.0431
x2 = 0.9531	-0.0226

CCCCOCCOC(C)=O [2-butoxyethyl acetate]
Details	mass density [kg/m3]	refractive index
[1]	935.12	–
[2]	–	1.41183

CC(Cl)CCl (stereo not given) [1,2-dichloropropane]
Details	mass density [kg/m3]	refractive index
[1]	1148.95	–
[2]	–	1.43653

COCCOC(C)=O [2-methoxyethyl ethanoate] + CC(Cl)CCl
[3]
Details	excess molar enthalpy [kcal/mol]
x2 = 0.0464	-0.0141
x2 = 0.0936	-0.0253
x2 = 0.1401	-0.0365
x2 = 0.2084	-0.0512
x2 = 0.253	-0.06
x2 = 0.2969	-0.0674
x2 = 0.3402	-0.0748
x2 = 0.4038	-0.08196
x2 = 0.4454	-0.08535
x2 = 0.5066	-0.08855
x2 = 0.5467	-0.08953
x2 = 0.6056	-0.08855
x2 = 0.6442	-0.0864
x2 = 0.701	-0.0811
x2 = 0.7566	-0.0746
x2 = 0.811	-0.0636
x2 = 0.8466	-0.0549
x2 = 0.8991	-0.0402
x2 = 0.9505	-0.0217
